Data set [1] has as its system maximal electroshock-induced seizures (MES). In words: Maximum electroshock seizure test (MES), oral administration to mice. The data set is classed as in vivo. Conditions: Mus musculus, po, 30 minutes before the test, dose protecting 50% of animals. An excerpt: The compounds of the present invention may be tested for in vivo anticonvulsant activity after i.v., p.o. or i.p. injection using a number of anticonvulsant tests in mice, including the maximum electroshock seizure test (MES). Maximum electroshock seizures were induced in male NSA mice weighing between 15-20 g and male Sprague-Dawley rats weighing between 200-225 g by application of current (50 mA, 60 pulses/sec, 0.8 msec pulse width, 1 sec duration, D.C., mice; 99 mA, 125 pulses/sec, 0.8 msec pulse width, 2 sec duration, D.C., rats) using a Ugo Basile ECT device (Model 7801). Mice were restrained by gripping the loose skin on their dorsal surface and saline-coated corneal electrodes were held lightly against the two corneae. Rats were allowed free movement on the bench top and ear-clip electrodes were used. […] A tonic seizure was defined as a hindlimb extension in excess of 90 degrees from the plane of the body. Results were treated in a quantal manner.
The ability of 3-[4-(2,4-difluorophenoxy)phenyl]-1H-pyrazole-1-carboxamide to block maximal electroshock-induced seizures (MES) was determined as described earlier.
3-[4-(2,4-Difluorophenoxy)phenyl]-1H-pyrazole-1-carboxamide was administered p.o. to mice 30 minutes before the test procedure.
The following compounds in Table 1 were tested in MES as described for 3-[4-(2,4-difluorophenoxy)phenyl]-1H-pyrazole-1-carboxamide: […]

For data set [2], the target named is rBIIA isoform of Na+ channels (Rattus norvegicus, UniProt P04775). The data set can be described thus: Electrophysiological Assay 2: whole-cell patch-clamp of Na+ currents in HEK-293 cells expressing rBIIA. It is filed as cell-based. The settings on record: for Ki: HEK-293 cells stably expressing rBIIA, concentration that produces half maximal inhibition. On the procedure: Cell preparation: HEK-293 (NaIIA-B2) cell line stably expressing the rBIIA isoform of Na^+ channels was established in-house. The cells were cultured using standard techniques, as described previously (Verdoorn, T. A, et al., Neuron 4:919-928 (1990)). For electrophysiology, cells were plated onto poly-D-lysine pre-coated Cellware 35 mm Petri dishes (BIOCOAT, Becton Dickinson) at a density of ˜10^4 cells/dish on the day of re-seeding from confluent cultures. Our experience has been that cells are suitable for recordings for 2-3 days after plating.
Patch-clamp recordings of voltage-sensitive Na^+ currents. Whole-cell voltage-clamp recordings were made using conventional patch-clamp techniques (Hamill et al., Pfluegers Arch. 391:85-100 (1981)) with an Axopatch 200A amplifier (Axon Instruments, Foster City, Calif.). The recording chamber was continuously superfused with the external solution (150 mM NaCl, 5.4 mM KCl, 1.8 mM CaCl2, 1 mM MgCl2, 10 mM HEPES, 10 mM glucose, pH7.4 adjusted with NaOH, osmolality ˜320 mmol/kg) at a speed of about 1 mL/min. Recording pipettes were pulled from the thick-walled capillaries (WPI, Sarasota, Fla.) and fire-polished. The pipette resistances ranged from 1 to 3 MΩ when the pipettes were filled with internal solution containing (in mM): 130 CsF, 20 NaCl, 2 MgCl2, 10 EGTA, 10 HEPES, pH adjusted to 7.4 with CsOH, osmolality ˜310 mmol/kg. Drugs and intervening wash-outs were applied through a linear array of flow pipes (Drummond Microcaps, 2 μL, 64-mm length). Compounds are dissolved in dimethylsulfoxide (DMSO) to make a 30 mM stock solution, which was subsequently diluted into the external solution to give final concentrations of 0.1-100 μM. At the highest (1%) concentration, DMSO inhibited the size of Na^+ current only slightly. Currents were recorded at room temperature (22-25° C.), filtered at 3 kHz with an active 8-pole Bessel filter (Frequency Devices, Haverhill, Mass.), digitized at 10-50 μs intervals, and stored using Digidata 1200 analog/digital interface with Pclamp6/Clampex software (Axon Instruments). Series resistance was cancelled typically by ˜75% when necessary.
The following voltage pulse protocols were used to assess the potency and kinetics of inhibition of the Na^+ channels by the compounds (FIG. 1). [drawing 33]
FIG. 1. Voltage pulse protocols. A. IV-curves. C. Steady-state inactivation. B. Repriming kinetics. D. Time course of binding.
Current-voltage relationship (IV-curve), protocol A, was used to report the voltage at which the maximal inward Na^+ current is achieved. This voltage was used throughout the experiment as testing voltage, Vt. The steady-state inactivation (or, availability) curve, protocol C, was used to get the voltage at which almost complete (≧95%) inactivation of Na^+ channels occurs; it served as voltage for conditioning prepulse, Vc, throughout the experiment. Protocol B reports how fast the channels recover from inactivation at hyperpolarized voltages. This permitted us to set up the duration of the hyperpolarization gap which is used in measurement of the kinetics of binding of compounds to inactivated Na^+ channels (protocol D). Channel repriming under control conditions was fast (≧90% recovery during first 5-10 ms). If a drug substantially retards the repriming process then it becomes possible (protocol D) to accurately measure the kinetics of binding of the inhibitor to inactivated channels as well as the steady-state affinity (k+ and Ki). To estimate k+ values the reduction in peak currents in successive trials with varying pre-pulse duration was plotted as a function of pre-pulse duration and the time constant (τ) measured by mono-exponential fit. A plot of 1/τ as a function of antagonist concentration then allowed calculating of the macroscopic binding rates of the antagonists. To determine Ki values the partial inhibition curves measured by fractional responses in steady-state were fitted with the logistic equation: […]

In data set [3] the target is T1, hSkM1 isoform of Na+ channels (Homo sapiens, UniProt P35499).
T1 construct: expressed in transfected cells
In words: Electrophysiological Assay 1: whole-cell patch-clamp of Na+ currents in HEK-293 cells expressing hSkM1. The settings on record: HEK-293 cells stably expressing hSkM1; concentration that produces half maximal inhibition. The data set is classed as cell-based. On the procedure: Cell preparation: HEK-293 cells stably expressing the hSkM1 isoform of Na^+ channels (generous gift from Dr. A. L. George, Vanderbilt University Medical School) were cultured using standard techniques, as described previously (Verdoorn, T. A, et al., Neuron 4:919-928 (1990)). For electrophysiology, cells were plated onto 35 mm Petri dishes (pre-coated with poly-D-lysine) at a density of 1:40 on the day of re-seeding from confluent cultures. Our experience has been that cells are suitable for recordings for 2-3 days after plating.
Patch-clamp recordings of voltage-sensitive Na^+ currents: Whole-cell voltage-clamp recordings were made using conventional patch-clamp techniques (Hamill et al., Pfluegers Arch. 391:85-100 (1981)) with an Axopatch 200A amplifier (Axon Instruments, Foster City, Calif.). […] The recording chamber was continuously superfused with the external solution (150 mM NaCl, 5.4 mM KCl, 1.8 mM CaCl2, 1 mM MgCl2, 10 mM HEPES, 10 mM glucose, pH 7.4 (NaOH)) at a speed of about 1 mL/min. Recording pipettes were pulled from thick-walled capillaries (WPI, Sarasota, Fla.) and fire-polished. The pipette resistances ranged from 1 to 3 MΩ when the pipettes were filled with internal solution containing (in mM): 110 CsF, 10 NaCl, 5 MgCl2, 11 EGTA, 10 HEPES, pH adjusted to 7.4 with CsOH. Osmolality was set with a difference of 15-20 mmol/kg between external and internal solutions (lower inside the cell). Drugs and intervening wash-outs were applied through a linear array of flow pipes (Drummond Microcaps, 2 μL, 64-mm length). Compounds are dissolved in dimethylsulfoxide (DMSO) to make a 30 mM stock solution, which was subsequently diluted into the external solution to give final concentrations of 0.1-100 μM. At the highest (1%) concentration, DMSO inhibited the size of Na^+ current only slightly. Currents were recorded at room temperature (22-25° C.), filtered at 5 kHz with an active 8-pole Bessel filter (Frequency Devices, Haverhill, Mass.), digitized at 10-50 μs intervals, and stored using Digidata 1200 analog/digital interface with Pclamp6/Clampex software (Axon Instruments). Series resistance was cancelled typically by ˜75% when necessary. The inhibitory potency of drugs was assessed by measuring reductions in the peak amplitude of Na^+ currents induced by increasing concentrations of compounds tested. Na^+ currents were elicited by stepping membrane voltage from holding potentials over the range −100 mV to −50 mV, to a pulse potential of −10 mV. The test pulse duration was 5-10 msec, repeated at a frequency≦1 Hz. Concentration-inhibition curves were fitted with equation 1:
I/Icontrol=1/(1+([compound]/IC50)) Eq. 1
where Icontrol is the maximal Na^+ current in the absence of antagonist, [compound] is the drug concentration, and IC50 is the concentration of compound that produces half maximal inhibition.
The apparent antagonist dissociation constant (Kd) of this compound for inactivated sodium channels is ˜8 nM.
The Ki (the concentration of a compound that produces half maximal inhibition) value for 3-[4-(4-fluorophenoxy)phenyl]-1H-pyrazole-1-carboxamide and other tested compounds are presented in Table 2.
(In patch-clamp work, channel activity is measured electrically.)

The structures appear in SMILES notation. Structures can show the parent of a compound that is named as a salt.

T1 sequence (P35499 whole entry, canonical isoform): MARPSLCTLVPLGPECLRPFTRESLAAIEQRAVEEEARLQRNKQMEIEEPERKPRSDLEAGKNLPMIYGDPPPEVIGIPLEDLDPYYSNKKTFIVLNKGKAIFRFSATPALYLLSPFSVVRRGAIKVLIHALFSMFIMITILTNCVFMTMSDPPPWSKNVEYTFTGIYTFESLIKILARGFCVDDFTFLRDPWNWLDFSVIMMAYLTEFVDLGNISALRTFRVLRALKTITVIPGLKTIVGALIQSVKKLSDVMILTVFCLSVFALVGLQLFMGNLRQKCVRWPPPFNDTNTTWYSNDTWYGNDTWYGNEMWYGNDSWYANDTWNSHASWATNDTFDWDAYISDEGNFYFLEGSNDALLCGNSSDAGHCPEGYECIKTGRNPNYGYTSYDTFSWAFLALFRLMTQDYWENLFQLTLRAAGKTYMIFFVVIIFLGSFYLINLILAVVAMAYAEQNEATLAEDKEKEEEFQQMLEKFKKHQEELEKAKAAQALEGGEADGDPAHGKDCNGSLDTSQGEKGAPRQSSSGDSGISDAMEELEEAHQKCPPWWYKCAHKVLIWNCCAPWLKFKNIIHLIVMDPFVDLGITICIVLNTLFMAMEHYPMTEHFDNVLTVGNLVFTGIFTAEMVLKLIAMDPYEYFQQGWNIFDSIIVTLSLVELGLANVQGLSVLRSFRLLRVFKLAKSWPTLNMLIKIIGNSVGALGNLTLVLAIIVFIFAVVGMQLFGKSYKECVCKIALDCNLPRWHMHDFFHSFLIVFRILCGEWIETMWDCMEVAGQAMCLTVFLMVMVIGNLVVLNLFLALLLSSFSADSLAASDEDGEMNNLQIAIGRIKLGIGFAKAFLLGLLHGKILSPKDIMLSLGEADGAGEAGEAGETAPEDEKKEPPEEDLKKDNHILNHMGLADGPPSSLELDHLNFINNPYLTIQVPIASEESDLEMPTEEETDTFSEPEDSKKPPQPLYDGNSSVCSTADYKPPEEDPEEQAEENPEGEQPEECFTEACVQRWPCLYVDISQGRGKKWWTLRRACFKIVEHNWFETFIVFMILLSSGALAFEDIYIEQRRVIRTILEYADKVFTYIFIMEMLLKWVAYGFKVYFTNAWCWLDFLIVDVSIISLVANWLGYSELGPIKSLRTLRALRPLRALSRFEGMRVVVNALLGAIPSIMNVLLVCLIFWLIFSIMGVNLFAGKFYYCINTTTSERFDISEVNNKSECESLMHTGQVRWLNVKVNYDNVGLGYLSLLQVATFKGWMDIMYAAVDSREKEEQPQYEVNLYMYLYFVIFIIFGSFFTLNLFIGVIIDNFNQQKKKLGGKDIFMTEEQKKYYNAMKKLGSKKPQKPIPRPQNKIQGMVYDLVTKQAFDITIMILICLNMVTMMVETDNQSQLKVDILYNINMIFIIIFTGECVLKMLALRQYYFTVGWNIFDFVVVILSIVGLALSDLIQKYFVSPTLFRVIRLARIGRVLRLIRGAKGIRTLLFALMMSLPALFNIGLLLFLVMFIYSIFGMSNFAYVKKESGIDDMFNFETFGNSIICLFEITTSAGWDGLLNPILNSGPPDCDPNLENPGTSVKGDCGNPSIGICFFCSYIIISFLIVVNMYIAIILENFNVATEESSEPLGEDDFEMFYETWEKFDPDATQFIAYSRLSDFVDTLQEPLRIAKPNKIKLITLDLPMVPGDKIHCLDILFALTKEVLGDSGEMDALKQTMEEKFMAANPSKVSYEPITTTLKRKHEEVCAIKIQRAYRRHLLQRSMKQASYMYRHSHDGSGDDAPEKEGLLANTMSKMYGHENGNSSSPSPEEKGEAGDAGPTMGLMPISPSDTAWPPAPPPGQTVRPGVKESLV

What is called melting point is the temperature of the solid-liquid transition. `Fc1ccc(Oc2ccc(-c3c[nH]cn3)cc2)c(F)c1` (as salt: hydrochloride) [4-[4-(2,4-Difluorophenoxy)phenyl]-1H-imidazole] showed a melting point of 192 to 195 °C.
What is called ED50 is the dose at which the effect has come halfway, by size or by number of responders. Compound `O=C(Cn1nccc1-c1ccc(Oc2ccc(F)cc2)cc1)N1CCOCC1` [1-Morpholin-4-yl-2-{5-[4-(4-fluorophenoxy)phenyl]-pyrazol-1-yl}-ethanone] yielded a melting point of 122 to 124 °C. Further, the ED50 in data set [1] amounted to 4.4 mg/kg.
In general, Ki refers to the equilibrium dissociation constant of an inhibitor or competing ligand from its target. Low readings indicate tighter binding, high ones weaker binding. Take `Fc1ccc(Oc2ccc(-c3ccn(-c4ncccn4)n3)cc2)cc1` [2-{3-[4-(4-Fluorophenoxy)phenyl]-pyrazol-1-yl}-pyrimidine]: the 50% effect level in data set [1] (ED50) was put at a dose of 4.7 mg/kg. Also, in data set [2], the Ki worked out at 420 nM.
The matching figures for `NC(=O)Cn1nccc1-c1ccc(Oc2ccc(F)cc2)cc1` [2-{5-[4-(4-Fluorophenoxy)phenyl]-pyrazol-1-yl}-acetamide]: 2.6 mg/kg and 1560 nM.
With `NC(=O)n1ccc(-c2ccc(Oc3ccc(Cl)cc3F)cc2)n1` [3-[4-(4-Chloro-2-fluorophenoxy)phenyl]-1H-pyrazole-1-carhoxamide], the melting point was 150 to 151 °C. In data set [1], this compound came in with an ED50 of 3.1 mg/kg. For the same compound, affinity in data set [3] was put at a Ki of 3 nM.
With `NC(=O)n1ccc(-c2ccc(Oc3ccc(C(F)(F)F)cc3)cc2)n1` [3-[4-(4-Trifluoromethylphenoxy)phenyl]-1H-pyrazole-1-carboxamide], the melting point was in the range of 131 to 132 °C. This compound returned an ED50 in data set [1] of 3.9 mg/kg.
In turn, `Cl.FC(F)(F)c1ccc(Oc2ccc(-c3c[nH]cn3)cc2)cc1` [4-(4-(4-Trifluoromethylphenoxy)phenyl]-1H-imidazole, hydrochloride salt] had a melting point of 230 to 232 °C. In addition, in data set [1], the ED50 came to 7.7 mg/kg.
`Fc1ccc(Oc2ccc(-c3c[nH]cn3)cc2)c(F)c1` [4-[4-(2,4-Difluorophenoxy)phenyl]-1H-imidazole]: the melting point lay in the range of 144 to 148 °C. Besides, the affinity in data set [2] corresponds to a Ki of 1030 nM.
In turn, `Cl.Fc1cc(Cl)ccc1Oc1ccc(-c2c[nH]cn2)cc1` [4-[4-(4-Chloro-2-fluorophenoxy)phenyl]-1H-imidazole, hydrochloride salt] gave a melting point of 216 to 220 °C. The same compound yielded an ED50 in data set [1] of 10 mg/kg. This compound also came in with a Ki in data set [2] of 120 nM.
In data set [2], `Cl.Fc1ccc(Oc2ccc(-c3c[nH]cn3)cc2F)cc1` [4-[4-(4-Fluorophenoxy)-3-fluorophenyl]-1H-imidazole, hydrochloride salt] showed a Ki of 250 nM. The “inhibition of voltage-gated sodium currents” value in data set [2] (HEK-293 cells stably expressing the rBIIA isoform of Na+ channels) was “dose-dependent inhibition”. Further, in data set [2] (HEK-293 cells stably expressing the rBIIA isoform of Na+ channels, read-out: apparent antagonist dissociation constant (Kd) for inactivated sodium channels), the Kd came out at 250 nM. The “potency towards Na+ channels in their resting states” value in data set [2] (rBIIA, blocking effect highly sensitive to the holding voltage) is given as “weak potency”.
As for `CSc1cc(-c2ccc(Oc3ccccc3)cc2)nn1C(N)=O` [5-Methylthio-3-(4-phenoxyphenyl)-1H-pyrazole-1-carboxamide], the melting point lay within 142 to 144 °C. This compound gave a Ki in data set [3] of 80 nM.
